PMC5321741, “Arylmethylamino steroids as antiparasitic agents” (Nature Communications, 2017)
Several values for one entry are separate records, joined by “and”; a condition that tells them apart may be missing. Equal entries are not always repeated. Where two headings read alike, the source gives them in different places.

How the values were obtained:
P. falciparum strain Dd2 = assay: 72 h 3H-hypoxanthine incorporation assay, chloroquine-resistant strain; format: cell-based; details: Plasmodium falciparum
[1] = system: P. falciparum (strain 3D7); assay: 72 h 3H-hypoxanthine incorporation assay, asexual blood stages; format: cell-based, Plasmodium falciparum
[2] = system: Penicillium notatum JMRC:STI:50164; assay: agar diffusion inhibition zone test; format: cell-based; details: 1o, 2o 1,000 µg/ml in DMSO, amphotericin B 10 µg/ml, solvent DMSO 13p
Method: (§1) The following organisms were tested at the Hans Knöll Institute in Jena, for their susceptibility to the compounds 1o and 2o: Bacillus subtilis JMRC:STI:10880, Staphylococcus aureus JMRC:ST:10760, Escherichia coli JMRC:ST:33699, Pseudomonas aeruginosa JMRC:ST:33772, Pseudomonas aeruginosa JMRC:ST:337721, Staphylococcus aureus JMRC:ST:33793 (multi-resistant), Enterococcus faecalis JMRC:ST:33700 (Vancomycin-resistant), Mycobacterium vaccae JMRC:STI:10670, Sporobolomyces salmonicolor (Basidiomycetes yeast) JMRC:ST:35974, Candida albicans (Ascomycetes yeast) JMRC:STI:25000, Penicillium notatum JMRC:STI:50164.
(§2) The bacteria were propagated in Mueller Hinton Broth (Oxoid)[49]. Yeast was propagated in YPD (yeast extract peptone dextrose): 1% yeast extract, 10 g; 2% peptone, 20 g; 2% agar, 20 g; 2% dextrose (glucose), 20 g; Sigma-Y1375. All bacteria and yeast suspensions were freshly made. The cultures were incubated at 37 °C for 16 h. Afterwards, the bacteria concentration from each culture was determined, and 34 ml of nutrient agar was loaded with 10^7 cells. These cultures were stored at 6-8 °C and could be used for seven days for the preparation of test plates. 34 ml of nutrient agar was liquefied and inoculated with the calculated amount of inoculum bacteria suspension at 48–50 °C, a temperature suitable for vegetative forms of bacteria. The inoculated nutrient media (34 ml each) were immediately poured into the prepared test plates (3 mm layer). With a punching device, 12 holes per test plate were punched out. For inhibiting bacterial growth, ciprofloxacin was used as a reference substance. The test substances were dissolved in distilled water, and 5 μg ml^−1 and 50 μl was added to each bacterial culture. For inhibition of fungal growth, amphotericin B served as the reference substance. The test substances were diluted to 10 μg ml^−1 in DMSO/methanol; 50 μl was added to each culture.
(§3) Configuring the test plate; volumes/punched hole: 50 μl; test solutions/test plate: 1 × 50 μl reference substance. Test plates were cultivated for 18 h at 37 °C. Analysis: Reading the inhibition zones (IZ): As IZ, the zone in which no growth can be determined with the naked eye is measured; the tiniest colonies on the edge of the inhibition zone were therefore not taken into consideration. The diameter (φ) of the IZ is measured in mm. The analysis of IZ φ is carried out internationally with the help of statistic procedures, especially regression analysis. With each test approach, the reference substance was brought along as a control; if there were deviations from allowed IZ φ, the test was repeated.
(§4) The inhibition of bacterial growth was determined using bacterial cultures grown in Müller-Hinton Bouillon, which was configured at barely visible opacity with the McFarland Standard Nr. 0.5, which indicates a bacterial density of 10^8 ml^−1. This bacterial suspension was diluted with Müller-Hinton Bouillon using 2-fold dilution series in the agar diffusion test.
(§5) Analysis: The growth in the inhibition zones around the holes containing active substances is thereby compared with the growth in the growth control (no active substance). Bacterial growth was determined according to four measurements: p=presence of colonies in the inhibition zone, P=presence of many colonies in the inhibition zone, A=indication of inhibition, F=facilitation.

[3] = system: Staphylococcus aureus JMRC:ST:33793 (multi-resistant); assay: agar diffusion inhibition zone test; format: cell-based; details: 1o, ciprofloxacin 5 µg/ml, solvent DMSO 12P
Method: as §1, §2, §3, §4, §5

[4] = system: Bacillus subtilis JMRC:STI:10880; assay: agar diffusion inhibition zone test; format: cell-based; details: 1o, ciprofloxacin 5 µg/ml, solvent DMSO 12P
Method: as §1, §2, §3, §4, §5

[5] = system: Staphylococcus aureus JMRC:ST:10760; assay: agar diffusion inhibition zone test; format: cell-based; details: 1o, ciprofloxacin 5 µg/ml, solvent DMSO 12P
Method: as §1, §2, §3, §4, §5

[6] = system: Escherichia coli JMRC:ST:33699; assay: agar diffusion inhibition zone test; format: cell-based; details: 1o, 2o 1,000 µg/ml in DMSO; ciprofloxacin 5 µg/ml; solvent DMSO 13P
Method: as §1, §2, §3, §4, §5

[7] = system: Pseudomonas aeruginosa JMRC:ST:337721; assay: agar diffusion inhibition zone test; format: cell-based; details: 1o, ciprofloxacin 5 µg/ml, solvent DMSO 16P
Method: as §1, §2, §3, §4, §5

[8] = system: Pseudomonas aeruginosa JMRC:ST:33772; assay: agar diffusion inhibition zone test; format: cell-based; details: 1o, ciprofloxacin 5 µg/ml, solvent DMSO 13P
Method: as §1, §2, §3, §4, §5

[9] = system: Enterococcus faecalis JMRC:ST:33700 (Vancomycin-resistant); assay: agar diffusion inhibition zone test; format: cell-based; details: 1o, ciprofloxacin 5 µg/ml, solvent DMSO 12P
Method: as §1, §2, §3, §4, §5

[10] = system: Sporobolomyces salmonicolor JMRC:ST:35974; assay: agar diffusion inhibition zone test; format: cell-based; details: 1o, 2o 1,000 µg/ml in DMSO; amphotericin B 10 µg/ml; solvent DMSO 20p
Method: as §1, §2, §3, §4, §5

[11] = system: Mycobacterium vaccae JMRC:STI:10670; assay: agar diffusion inhibition zone test; format: cell-based; details: 1o, 2o 1,000 µg/ml in DMSO; ciprofloxacin 5 µg/ml; solvent DMSO 13P
Method: as §1, §2, §3, §4, §5

[12] = pH 7.5
Method: Spectrophotometric titration of 1o or 2o by Cu(II) and Fe(III)
Typically, an aliquot of 250 µl (or 500 µl) of a stock solution (~ 0.89 mM) of 1o or 2o was
dissolved in 2.5 (or 2.0 ml) of a mixed solvent made of 0.2 M sodium hepes buffer at pH 7.5
and DMSO (1:1 v/v) in a 1 cm Hellma optical quartz cell. The absorption spectrophotometric
titrations were carried out by adding microvolumes of a stock solution of the metallic cation (5
mM for Cu(II) or 7.36 mM for Fe(III). Aliquots of 5 µl of the stock metal solution were
successively added to the reaction mixture, and after each addition a UV-visible absorption
spectrum (250 nm < λ < 800 nm) was recorded with an Agilent Cary 5000 spectrophotometer. Special care was taken to ensure that equilibrium was attained after
each addition of the substrate. The association constants KL.M (L = 1o, 2o and M = Fe(III) or
Cu(II)) and the stoichiometry of the species at equilibrium were determined by processing the
spectrophotometric data with the Specfit program. The uncertainties on the log K values are given as 3 with  = standard deviation.

haem = assay: ESI-MS collision-induced dissociation of haem adducts; format: binding; details: 50 µM haem and 50 µM substrate; for DV50 (dissociation voltage at 50%) of haem adduct: ESI-CID, 20 V to 400 V; for Bottom plateau (adduct remaining at 400 V): fragmentor voltage 400 V
Method: Compound Molar Adduct DV50 Bottom Dissociation mass [Haem+S] (V) plateau Constant
Supplementary Table 7. ESI-MS-CID data (m/z, calculated DV50 = dissociation voltage at 50% and % bottom plateau) of the [haematin-drug]+ adducts and dissociation constants (KD, µM) of the haematin-drug complexes measured with absorption spectrophotometric titrations.
Conditions: 50 µM haem and 50 µM substrate in H2O/CH3CN (5/95) + 0.1% formic acid.
Stability responses of the haem substrate adduct were obtained via ESI-CID experiments.
Positive mode; fragmentor voltage from 20 V to 400 V with 20 V increments. […]
- 41/120 g), and complete dissolution was achieved using an ultrasonic bath. All solutions were protected from daylight to avoid any photochemical degradation. All the physiochemical measurements were carried out at 25.0(2) °C. […]
Electrospray mass spectrometric measurements stopping point
Electrospray mass spectra of the haem complexes were obtained with an Agilent Technologies 6120 quadrupole equipped with an electrospray (ESI) interface. For

[13] = target: haem (FeIIIPPIX, π-π dimer); assay: spectrophotometric titration of haematin π-π dimer; format: binding; details: absorption spectrophotometric titration, pH 7.5; read-out: Dissociation Constant KD of haematin-drug complex
[14] = Plasmodium falciparum, 3D7, 72 h 3H-hypoxanthine incorporation, asexual blood stages, read-out: Antiplasmodial activity IC50 Pf (3D7)

Row | Structure (SMILES) | IC50 (P. falciparum strain Dd2) | IC50 [1, 14] | inhibition zone diameter, Escherichia coli (B4) [6] | inhibition zone diameter, Sporobolo. salmonicolor (H4) [10] | inhibition zone diameter, Mycobac. vaccae (M4) [11] | stability constants log KLM of 1:1 complexes [12] | DV50 (dissociation voltage at 50%) of haem adduct (haem) | Bottom plateau (adduct remaining at 400 V) (haem) | Kd [13] | further results
1 | COc1ccc2c(c1)CCC1C2CC[C@@]2(C)C1CC[C@H]2NCc1cc2ccccc2cc1O (stereo partly shown) [1o] | 1 ± 0.9 nM | ~5 nM | 15P | 22p | 18p | 4.1-4.7 | 290 V | ~ 20% and 20% | 3300 nM | IC50 ([1]; 72 h 3H-hypoxanthine incorporation, asexual blood stages, read-out: Antiplasmodial activity IC50 Pf (3D7)): 4.1 nM; IC50 ([1]; Plasmodium falciparum, 3D7, chloroquine-sensitive and resistant P. falciparum parasites, read-out: IC50 against intraerythrocytic stages): 1 to 5 nM; inhibition zone diameter, Penicillium notatum (P1) [2]: 0 mm; inhibition zone diameter, MRSA Staph. aureus (R9) ([3]; 2o 1,000 µg/ml in DMSO): 0 mm; inhibition zone diameter, Bacillus subtilis (B1) ([4]; 2o 1,000 µg/ml in DMSO): 0 mm; inhibition zone diameter, Staphylococcus aureus (B3) ([5]; 2o 1,000 µg/ml in DMSO): 0 mm; inhibition zone diameter, Pseudomonas aeruginosa JMRC:ST:337721 (B9) ([7]; 2o 1,000 µg/ml in DMSO): 0 mm; inhibition zone diameter, Pseudomonas aeruginosa JMRC:ST:33772 (B7) ([8]; 2o 1,000 µg/ml in DMSO): 0 mm; inhibition zone diameter, VRSA Enteroc. faecalis (R10) ([9]; 2o 1,000 µg/ml in DMSO): 0 mm
2 | COc1ccc2c(c1)CCC1C2CC[C@@]2(C)C1CC[C@@H]2NCc1cc2ccccc2cc1O (stereo partly shown) [2o] | 2 ± 1.2 nM | 6.6 nM | 16P | 24p | 17p | 4.1-4.7 | 280 V | 21.7% and ~ 20% | 8300 nM | zone of inhibition at 1000 µg/mL ([2]; Penicillium chrysogenum, read-out: inhibition zone diameter, Penicillium notatum (P1)): 0 mm; zone of inhibition ([3]; Staphylococcus aureus, MRSA, read-out: inhibition zone diameter, MRSA Staph. aureus (R9)): 0 mm; zone of inhibition ([4]; Bacillus subtilis, read-out: inhibition zone diameter, Bacillus subtilis (B1)): 0 mm; zone of inhibition ([5]; Staphylococcus aureus, read-out: inhibition zone diameter, Staphylococcus aureus (B3)): 0 mm; zone of inhibition ([7]; Pseudomonas aeruginosa, read-out: inhibition zone diameter, Pseudomonas aeruginosa JMRC:ST:337721 (B9)): 0 mm; zone of inhibition ([8]; Pseudomonas aeruginosa, read-out: inhibition zone diameter, Pseudomonas aeruginosa JMRC:ST:33772 (B7)): 0 mm; zone of inhibition ([9]; read-out: inhibition zone diameter, VRSA Enteroc. faecalis (R10)): 0 mm
